# Reference: the NIST ThermoML archive (doi:10.1016/j.tca.2017.07.003)
# ± gives the expanded uncertainty stated by the source.
# Settings: Crystal; DTA
row,SMILES,Normal melting temperature
1,"CCCCNC(=O)c1cc(C(=O)NCCCC)cc(C(=O)NCCCC)c1 [N,N',N''-tributyl-1,3,5-benzenetricarboxamide]",229.00 ± 1 °C
2,"CC(C)CNC(=O)c1cc(C(=O)NCC(C)C)cc(C(=O)NCC(C)C)c1 [N,N',N''-tris(2-methylpropyl)-1,3,5-benzenetricarboxamide]",300.00 ± 1 °C
3,"CC(C)(C)NC(=O)c1cc(C(=O)NC(C)(C)C)cc(C(=O)NC(C)(C)C)c1 [N,N',N''-tris(tert-butyl)-1,3,5-benzenetricarboxamide]",304.00 ± 1 °C
